Assay results taken from article PMC4545913, “Dual EZH2 and EHMT2 histone methyltransferase inhibition increases biological efficacy in breast cancer cells” (Clinical Epigenetics, 2015).

What was measured:
KRT17 = test: qRT-PCR of KRT17 mRNA in MDA-MB-231 cells; type: cell-based; conditions: for fold induction at 10 µM: MDA-MB-231, single dose 10 μM; for Change in KRT17 mRNA level: MDA-MB-231, 48 h, single agents 1–15 μM, combination UNC0638 at 7.5 μM with increasing doses of GSK343
Protocol: (§1) Following compound treatment of MDA-MB-231 for 48 h (in 6-well plates), media was removed and 1.5 ml of TRIzol (Invitrogen) was added directly to lyse cells and RNA was isolated according to the manufacturer’s instructions. Reverse transcription was done using the SuperScript III First-Strand Synthesis System (Invitrogen) according to the manufacturer’s instructions. Each measurement was done in triplicate, and the List of Primers can be found in Additional file 2: Table S1. For normalisation, we have used GAPDH and RNA pol II. Experiments were also done with the ‘Fast Sybr Green Cell-to-CT™-Kit’ according to the manufacturer’s instructions (Applied Biosystem). Fifteen thousand cells per 96 well were plated, and after 24 h, treated with compounds at various concentrations.
(§2) For qRT-PCR measurements the 2x iQ SYBR Green Supermix (Bio-Rad), 200nM Primers and 0.4μl of cDNA /per 20μl reaction was used. The measurement was done in low-white 96-well plates (Bio-Rad) on a CFX96 Real-time System/C1000 Thermal Cycler (Bio-Rad) with the following protocol: 95°C for 3’; 95°C for 10’’, 56°C for 10’’, 72°C for 30’’ 42 cycles followed by a melting curve from 72°C to 95°C.

MDA-MB-231 cells [1] = test: MTT cell viability assay; type: cell-based; conditions: for IC50: Homo sapiens
Protocol: Fig. 1 MTT and mRNA levels in MDA-MB-231 cells after pharmacological inhibition and siRNA knockdown of EZH2 and EHMT2(G9a), individually and in combination. a Expression levels of KRT17, FBX032, JMJD3, EZH2, SPINK1 and EHMT2 were measured by qRT-PCR in the MDA-MB-231 cell line 48 h after transfection with siRNAs targeting EZH2 and EHMT2, both individually and in combination. All measurements were normalised to the fold-change (relative to GAPDH) in the mock transfection control. Error bars represent the mean ± SD of experiment performed in technical triplicate. b Expression levels of KRT17, FBX032, JMJD3 and SPINK1 were measured by qRT-PCR in the MDA-MB-231 cell line treated for 48 h with GSK343, UNC0638, and UNC0638 (at 7.5 μM) with increasing doses of GSK343. Each group has been compared to the untreated sample following normalisation to GAPDH. Error bars represent the mean ± SD of experiment performed in technical triplicate. c MTT assay for cell viability of MDA-MB-231 cells after treatment. MDA-MB-231 cells were seeded in 96 well plates. After 24 h, increasing doses of GSK343, UNC0638 or combination treatments (1, 2.5, 5, 7.5, 10 and 15 μM) were added to cells. Control was media with 0.5 % DMSO. Cell viability was measured by MTT assay after a 48-h treatment and a 24-h proliferation period. Error bars represent the mean ± SEM of five independent repeats
(§3) For clonogenic assays, cells were treated with compound for 48 h, media were removed and replaced with fresh media for a further 12 days to measure colony formation. For cell viability assays, lymphoma cells were plated at 20,000 cells in 200 μl per well in U-bottom 96 well plates in RPMI medium +20 % FCS. Cells were re-suspended 48 h later, diluted 10-fold in PBS + propidium iodide (PI) and the concentration of PI negative cells was counted using an Attune flow cytometer with autosampler. Breast cancer cells were seeded at a density of 10,000 cells/well in a sterile 96 clear-well plate with 150 μl of DMEM (+10 % FCS and 2 mM L-Glutamine). Each compound treatment was performed in triplicate for 72 h at concentrations of 100 nM and 1, 5, 10 and 50 μM in 100 μl of full-medium. After 72 h, 20 μl of MTT solution (3 mg of MTT Formazan, Sigma/1 ml PBS) was added to the medium and incubated for 4 h at 37 °C in a CO2 incubator. The MTT-product was solubilised with 100 μl DMSO, and for 1 h, incubated in the dark at room temperature. The optical density was read at 570 nm with PHERAstar.

JMJD3 = test: qRT-PCR of JMJD3 mRNA in MDA-MB-231 cells; type: cell-based; conditions: for fold induction at 10 µM: MDA-MB-231, single dose 10 μM; for Change in JMJD3 mRNA level: MDA-MB-231, 48 h, single agents 1–15 μM, combination UNC0638 at 7.5 μM with increasing doses of GSK343
Protocol: as §1, §2

FBXO32 = test: qRT-PCR of FBXO32 mRNA in MDA-MB-231 cells; type: cell-based; conditions: for fold induction at 10 µM: MDA-MB-231, single dose 10 μM; for Change in FBXO32 mRNA level: MDA-MB-231, 48 h, single agents 1–15 μM, combination UNC0638 at 7.5 μM with increasing doses of GSK343
Protocol: as §1, §2

MDA-MB-231 cells [2] = test: Clonogenic growth assay; type: cell-based; conditions: Homo sapiens; MDA-MB-231, 48 h treatment then 12 days in fresh media
Protocol: as §3

EZH2 [3] = test: qRT-PCR of EZH2 mRNA in MDA-MB-231 cells; type: cell-based; conditions: Homo sapiens, 48 h, normalised against GAPDH, read-out: EZH2 RNA level, fold increase compared to the mock treated sample; for fold induction at 10 µM: MDA-MB-231, single dose 10 μM
Protocol: as §1, §2

SPINK1 = test: qRT-PCR of SPINK1 mRNA in MDA-MB-231 cells; type: cell-based; conditions: for Change in SPINK1 mRNA level: MDA-MB-231, 48 h, single agents 1–15 μM, combination UNC0638 at 7.5 μM with increasing doses of GSK343; for SPINK1 expression upon treatment: MDA-MB-231, multiple doses and time points
Protocol: as §1, §2

DB = test: Lymphoma cell growth, cell counting following propidium iodide staining; type: cell-based; conditions: Homo sapiens, EZH2 Mutant Y646N, 48 h, PI negative cell count
Protocol: as §3

SC1 = test: as above; type: cell-based; conditions: Homo sapiens, SC-1, EZH2 W.T., 48 h, PI negative cell count
Protocol: as §3

SUDLH8 = test: as above; type: cell-based; conditions: EZH2 W.T. (amplified), 48 h, PI negative cell count
Protocol: as §3

DOHH2 = test: as above; type: cell-based; conditions: Homo sapiens, DOHH-2, EZH2 W.T., 48 h, PI negative cell count
Protocol: as §3

WILL1 = test: as above; type: cell-based; conditions: WILL-1, EZH2 W.T., 48 h, PI negative cell count
Protocol: as §3

WSU-FSCLL = test: as above; type: cell-based; conditions: EZH2 W.T., 48 h, PI negative cell count
Protocol: as §3

H3K27me3 and H3K9me3 = test: Western analysis of global histone marks in MDA-MB-231 cells; type: cell-based; conditions: range of doses
Protocol: MDA-MB-231 cells seeded in 6 well plates at a cell density of 3 x 10^5 were treated with HKMTI-1-005 (1–7.5uM) for 48 h. Following lysis in Triton Extraction Buffer (TEB, PBS containing 0.5 % Triton ×100 (v/v), 1/1000 protease inhibitor), nuclei were re-suspended in 0.2 N HCL at a density of 4 x 10^7 nuclei per millilitre and incubated overnight at 4 °C to acid-extract the histones, before being centrifuged at 6500g for 10 min at 4 °C. Protein concentration was determined using the Bradford assay. H3K27me3, H3K9me3, H3K9me2, H3K9me and total H3 protein expression levels in the histone extract samples were determined using Western blot analysis using H3K27me3 (1:1000; Abcam), H3K9me3 (1:1000; Abcam), H3K9me (1:1000) and H3 (1:2000; Abcam) antibodies. After washing, the membrane was incubated with a horseradish peroxidase-labelled secondary antibody (1 h, room temperature). The membrane was incubated for 1 min with 5 mL of Pierce ECL Western blotting substrate (Thermo Scientific). Images were captured using Konica Minolta SRX101A Tabletop X-Ray film processor.

[4] = molecular target: trimeric PRC2 complex (EZH2:EED:SUZ12) (Homo sapiens, UniProt O75530+Q15022+Q15910); test: PRC2 enzymatic assay (SPA-type), biotinylated-H3 (21–44) peptide substrate; type: biochemical; conditions: EZH2:EED:SUZ12, biotinylated-H3 (21–44) peptide substrate
Sequence of trimeric PRC2 complex (EZH2:EED:SUZ12) (Q15910 whole entry): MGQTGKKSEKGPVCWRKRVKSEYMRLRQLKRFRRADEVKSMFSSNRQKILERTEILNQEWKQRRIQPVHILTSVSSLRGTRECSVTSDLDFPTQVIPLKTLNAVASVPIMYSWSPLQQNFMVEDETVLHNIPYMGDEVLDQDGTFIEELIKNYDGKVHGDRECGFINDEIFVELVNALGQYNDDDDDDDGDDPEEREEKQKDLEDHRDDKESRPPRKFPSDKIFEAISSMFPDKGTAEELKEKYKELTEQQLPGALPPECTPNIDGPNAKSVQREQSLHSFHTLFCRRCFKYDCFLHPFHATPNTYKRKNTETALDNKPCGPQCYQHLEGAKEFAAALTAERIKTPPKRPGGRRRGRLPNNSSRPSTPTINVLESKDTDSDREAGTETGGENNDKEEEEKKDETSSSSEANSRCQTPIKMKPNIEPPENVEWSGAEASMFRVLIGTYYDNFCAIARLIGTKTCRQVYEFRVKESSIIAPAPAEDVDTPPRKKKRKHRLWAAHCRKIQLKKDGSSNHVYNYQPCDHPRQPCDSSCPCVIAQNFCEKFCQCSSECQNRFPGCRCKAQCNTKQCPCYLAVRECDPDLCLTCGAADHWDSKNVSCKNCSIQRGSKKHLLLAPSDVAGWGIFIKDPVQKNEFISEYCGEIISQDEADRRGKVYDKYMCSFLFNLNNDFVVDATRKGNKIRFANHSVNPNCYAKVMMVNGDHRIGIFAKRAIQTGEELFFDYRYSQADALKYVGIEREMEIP
Sequence of trimeric PRC2 complex (EZH2:EED:SUZ12) (O75530 whole entry partner): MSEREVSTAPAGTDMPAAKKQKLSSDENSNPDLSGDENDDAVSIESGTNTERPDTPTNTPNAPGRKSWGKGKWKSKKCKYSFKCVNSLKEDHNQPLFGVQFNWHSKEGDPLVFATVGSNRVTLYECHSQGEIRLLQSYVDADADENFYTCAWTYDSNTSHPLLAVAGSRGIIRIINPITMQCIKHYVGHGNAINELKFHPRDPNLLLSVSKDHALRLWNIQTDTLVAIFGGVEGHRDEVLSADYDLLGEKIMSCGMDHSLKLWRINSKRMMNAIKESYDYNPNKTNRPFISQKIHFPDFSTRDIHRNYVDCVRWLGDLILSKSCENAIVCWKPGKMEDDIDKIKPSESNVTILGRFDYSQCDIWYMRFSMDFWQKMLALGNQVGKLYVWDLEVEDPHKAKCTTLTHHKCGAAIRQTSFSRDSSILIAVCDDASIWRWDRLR
Sequence of trimeric PRC2 complex (EZH2:EED:SUZ12) (Q15022 whole entry partner): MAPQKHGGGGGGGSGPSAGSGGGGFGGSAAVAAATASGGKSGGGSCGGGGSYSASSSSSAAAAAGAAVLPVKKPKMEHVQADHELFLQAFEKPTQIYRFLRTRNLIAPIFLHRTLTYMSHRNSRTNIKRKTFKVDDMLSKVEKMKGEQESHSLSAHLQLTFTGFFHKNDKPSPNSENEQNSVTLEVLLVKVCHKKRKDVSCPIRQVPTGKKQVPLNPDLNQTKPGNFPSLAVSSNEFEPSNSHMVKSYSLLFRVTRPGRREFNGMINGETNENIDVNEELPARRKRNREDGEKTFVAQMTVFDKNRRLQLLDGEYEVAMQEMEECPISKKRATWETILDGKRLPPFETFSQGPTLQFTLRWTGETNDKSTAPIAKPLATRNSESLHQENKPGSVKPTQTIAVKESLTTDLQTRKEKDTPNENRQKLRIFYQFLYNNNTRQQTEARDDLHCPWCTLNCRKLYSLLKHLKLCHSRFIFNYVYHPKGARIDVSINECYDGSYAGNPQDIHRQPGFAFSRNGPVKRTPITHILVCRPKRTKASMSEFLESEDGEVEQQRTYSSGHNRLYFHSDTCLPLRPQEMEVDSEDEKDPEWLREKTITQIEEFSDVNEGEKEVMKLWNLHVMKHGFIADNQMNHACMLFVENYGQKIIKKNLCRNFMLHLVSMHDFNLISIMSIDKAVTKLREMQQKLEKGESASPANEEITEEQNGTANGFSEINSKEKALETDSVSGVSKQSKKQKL
From the text: A trimeric PRC2 complex (EZH2:EED:SUZ12) was employed in this assay, along with a biotinylated-H3 (21–44) peptide substrate. […] Since the peptide substrates used in these assays are poor models for the complex and dynamic structure of the chromatin substrate in cells and since the only minimal number of PRC2 proteins (EZH2:EED:SUZ12) required for enzymatically active EZH2 were employed in the PRC2 assay, care should be taken in the over interpretation of this in vitro inhibitory data.

EZH2 [5] = conditions: cited from earlier work
[6] = Homo sapiens, 48 h, normalised against GAPDH, read-out: KRT17 RNA level, fold increase compared to the mock treated sample
[7] = MDA-MB-231 (Table 2), read-out: Cell viability (MTT) IC50
[8] = Homo sapiens, 48 h, normalised against GAPDH, read-out: JMJD3 RNA level, fold increase compared to the mock treated sample
[9] = Homo sapiens, 48 h, normalised against GAPDH, read-out: FBXO32 RNA level, fold increase compared to the mock treated sample

COc1cc2nc(N3CCCN(C)CC3)nc(NC3CCN(Cc4ccccc4)CC3)c2cc1OC [BIX01294, reference compound]
fold induction at 10 µM (KRT17; [6]): 1.06
IC50 (MDA-MB-231 cells [1]; [7]): 9.6 µM
fold induction at 10 µM (JMJD3; [8]): 2.7
fold induction at 10 µM (FBXO32; [9]): 3.34
IC50 (MDA-MB-231 cells [2]): 1.4 µM
fold induction at 10 µM (EZH2 [3]): 0.87

CCCc1cc(C)[nH]c(=O)c1CNC(=O)c1cc(-c2ccnc(N3CCN(C)CC3)c2)cc2c1cnn2C(C)C [GSK343, reference compound]
Change in SPINK1 mRNA level (SPINK1): little change
IC50 (DB): < 1 µM
IC50 (SC1): 12.1 µM
IC50 (SUDLH8): 5.11 µM
IC50 (DOHH2): 6.15 µM
IC50 (WILL1): 17.9 µM
IC50 (WSU-FSCLL): 2.87 µM
fold induction at 10 µM (KRT17; [6]): 0.9
Change in KRT17 mRNA level (KRT17): little change
Global levels of H3K27me3 and H3K9me3 (Western) (H3K27me3 and H3K9me3): minor decrease
IC50 (MDA-MB-231 cells [1]; [7]): > 15 µM
Effect on cell viability (MDA-MB-231 cells [1]; MDA-MB-231, MTT, up to 15 μM, 48-h treatment and 24-h proliferation period): no significant reduction in cell viability
fold induction at 10 µM (JMJD3; [8]): 1
Change in JMJD3 mRNA level (JMJD3): little change
fold induction at 10 µM (FBXO32; [9]): 1.2
Change in FBXO32 mRNA level (FBXO32): little change
IC50 (MDA-MB-231 cells [2]): > 50 µM
fold induction at 10 µM (EZH2 [3]): 1

COc1cc2nc(NCCCN(C)C)nc(NC3CCN(Cc4ccccc4)CC3)c2cc1OC [HKMTI-1-002]
fold induction at 10 µM (KRT17; [6]): 0.66
fold induction at 10 µM (JMJD3; [8]): 1.57
fold induction at 10 µM (FBXO32; [9]): 1.12
fold induction at 10 µM (EZH2 [3]): 0.86

COc1cc2nc(N3CCN(c4ccccn4)CC3)nc(NC3CCN(Cc4ccccc4)CC3)c2cc1OC [HKMTI-1-011]
SPINK1 expression upon treatment (SPINK1): increased
IC50 [4]: 12 µM

COc1cc2nc(N3CCCC(CO)C3)nc(NC3CCN(C)CC3)c2cc1OC (stereo not drawn) [HKMTI-1-012]
fold induction at 10 µM (KRT17; [6]): 1.32
fold induction at 10 µM (JMJD3; [8]): 0.9
fold induction at 10 µM (FBXO32; [9]): 1.06
fold induction at 10 µM (EZH2 [3]): 1.38

COc1cc2nc(N3CCCN(C)CC3)nc(NCc3ccccn3)c2cc1OC [HKMTI-1-013]
fold induction at 10 µM (KRT17; [6]): 0.78
fold induction at 10 µM (JMJD3; [8]): 0.87
fold induction at 10 µM (FBXO32; [9]): 0.93
fold induction at 10 µM (EZH2 [3]): 0.13

COc1cc2nc(N3CCCCC3)nc(NC3CCN(Cc4ccccc4)CC3)c2cc1OC [HKMTI-1-022]
SPINK1 expression upon treatment (SPINK1): increased
IC50 [4]: 16 µM

COc1cc2c(NC3CCN(C(C)C)CC3)nc(C3CCCCC3)nc2cc1OCCCN1CCCC1 [UNC0638, reference compound]
EZH2 inhibition in biochemical assays (EZH2 [5]): not to significantly inhibit EZH2
Change in SPINK1 mRNA level (SPINK1): not significantly altered
fold induction at 7.5 µM (KRT17; Homo sapiens, 48 h, MDA-MB-231, single dose 7.5 μM, normalised against GAPDH, read-out: KRT17 RNA level, fold increase compared to the mock treated sample): 1.1
Change in KRT17 mRNA level (KRT17): not significantly altered
Global levels of H3K27me3 and H3K9me3 (Western) (H3K27me3 and H3K9me3): minor decrease
IC50 (MDA-MB-231 cells [1]; [7]): 8.2 µM
IC50 (MDA-MB-231 cells [1]; MDA-MB-231, MTT, 48-h treatment and 24-h proliferation period (Fig. 1c), read-out: Cell viability IC50 (calculated)): 9 µM
fold induction at 7.5 µM (JMJD3; Homo sapiens, 48 h, MDA-MB-231, single dose 7.5 μM, normalised against GAPDH, read-out: JMJD3 RNA level, fold increase compared to the mock treated sample): 3.4
Change in JMJD3 mRNA level (JMJD3): dose-dependent upregulation
fold induction at 7.5 µM (FBXO32; Homo sapiens, 48 h, MDA-MB-231, single dose 7.5 μM, normalised against GAPDH, read-out: FBXO32 RNA level, fold increase compared to the mock treated sample): 5.5
Change in FBXO32 mRNA level (FBXO32): dose-dependent upregulation
IC50 (MDA-MB-231 cells [2]): 1.1 µM
fold induction at 7.5 µM (EZH2 [3]; MDA-MB-231, single dose 7.5 μM): 0.4

COc1cc2c(NC3CCN(C(C)C)CC3)nc(N3CCC(F)(F)CC3)nc2cc1OCCCN1CCCC1 [UNC0642]
EZH2 inhibition in biochemical assays (EZH2 [5]): not to significantly inhibit EZH2
